The text below walks through data of patent US6048862A, “Benzylamidine derivatives with serotonin receptor binding activity” (Virginia Commonwealth University, priority 1999, dated 2000).

Where a name gives a salt, the structure may show the parent alone. Read-outs that look alike come from different tables or passages of the source.

One test deals with 5-HT1Dα (Homo sapiens, UniProt P28221). Briefly: biochemical. The test is classed as binding. To be noted: for 5-HT1Dβ / 5-HT1Dα: ratio of Ki values, selectivity for 5-HT1Dα over 5-HT1Dβ. As for the experimental part: (§1) Compounds of the previous examples, as well as reference compounds were evaluated for binding affinity using cell types receptive specifically to 5-HT1Dα and 5-HT1Dβ ligands. The assay protocol generally entailed the incubation of membranes prepared from cells expressing the 5-HT1Dα or 5-HT1Dβ subtype of 5-HT receptors with ^3 H-serotonin. Increasing concentrations of the test compound were incubated with the radioligand and the membrane homogenates prepared from the recombinant cells. After a 60 minute incubation at 22° C., the incubation was terminated by vacuum filtration. The filters were washed with buffer and counted for radioactivity using liquid scintillation spectroscopy. The affinity of the test compound for the 5-HT1Dα or 5-HT1Dβ receptor was determined by computer-assisted analysis of the data and by determining the amount of compound necessary to inhibit 50% of the binding of the radioligand to the receptor. Concentrations ranging from 10^-11 M to 10^- 5 M of the test compound were evaluated.

The next test has as its target 5-HT1Dβ (Homo sapiens, UniProt P28222). In words: Binding affinity, 3H-serotonin displacement, membranes of recombinant cells expressing 5-HT1Dβ. As for the experimental part:
as §1

Another test deals with T1, 5-HT1D receptor (Oryctolagus cuniculus, UniProt P49144).
T1 construct: Ring segments of the vein (4-5 mm in length) were cut and the endothelium gently removed; from tissue; host or cells: saphenous vein rings, endothelium removed, male New Zealand White rabbit
Briefly: 5-HT1D receptor agonist assay: contraction of isolated rabbit saphenous vein. It is filed as cell-based. As for the experimental part:
The saphenous veins from both the left and right side were cleaned of fat and connective tissue and placed in Krebs solution (118 mM NaCl, 11 mM glucose, 25 mM NaHCO3, 4.7 mM KCl, 2.5 mM CaCl2. 2H2 O, 1.2 mM KH2 PO4, and 1.2 mM MgSO4. 7H2 O. Ring segments of the vein (4-5 mm in length) were cut and the endothelium gently removed. The segments were mounted in 10 mL baths containing Krebs buffer and were constantly aerated with 95% oxygen/5% carbon dioxide and maintained at 37° C. and pH 7.4 in order to record the isometric tension. A resting tension of 2.5 g was applied and the tissues allowed to equilibrate for 90 minutes, with washing every 15-20 minutes. After the equilibrium period, the rings were depolarized by the addition of two aliquots of KCl (80 mM final concentration) separated by a 20 minute washing period. The tissues were then exposed to prazosin, idazoxan and indomethacin (all 1 μM final concentration) for 30 minutes in order to exclude the actions of α1 - and α2 -adrenergic receptors and prostaglandin receptors respectively. […] Responses were calculated as a percentage of the maximal contraction evoked by 80 mM KCl. Only one compound was tested per preparation.
EC50 represents the concentration of the compound which causes 50% of the maximum contraction effected by it. If the compound included a maximum contraction of less than 60% of that of KCl (80 mM), it was considered a partial agonist.

Setting [1] is: 3H-serotonin radioligand, 60 minute incubation at 22° C., read-out: 5-HT1Dα Kl.
The mark [2] stands for this setting: 3H-serotonin radioligand, 60 minute incubation at 22° C., read-out: 5-HT1Dβ Kl.
The mark [3] stands for this setting: rabbit isolated saphenous vein, prazosin, idazoxan and indomethacin (1 μM) present, 50% of the compound's own maximum contraction, 37° C., pH 7.4, read-out: EC50.

The EC50 is the concentration that produces a half-maximal response.

5-HT1Dβ, sequence (P28222 whole entry): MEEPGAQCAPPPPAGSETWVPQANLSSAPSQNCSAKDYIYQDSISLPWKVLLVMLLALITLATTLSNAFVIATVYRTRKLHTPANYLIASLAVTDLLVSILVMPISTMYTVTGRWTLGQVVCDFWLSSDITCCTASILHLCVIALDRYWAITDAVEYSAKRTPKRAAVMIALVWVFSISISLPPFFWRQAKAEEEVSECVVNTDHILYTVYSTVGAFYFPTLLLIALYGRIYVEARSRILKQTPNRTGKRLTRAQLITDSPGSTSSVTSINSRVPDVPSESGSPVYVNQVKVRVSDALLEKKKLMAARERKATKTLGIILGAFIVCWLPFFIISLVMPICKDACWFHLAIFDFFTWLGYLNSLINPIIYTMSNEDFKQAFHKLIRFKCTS
5-HT1Dα, sequence (P28221 whole entry): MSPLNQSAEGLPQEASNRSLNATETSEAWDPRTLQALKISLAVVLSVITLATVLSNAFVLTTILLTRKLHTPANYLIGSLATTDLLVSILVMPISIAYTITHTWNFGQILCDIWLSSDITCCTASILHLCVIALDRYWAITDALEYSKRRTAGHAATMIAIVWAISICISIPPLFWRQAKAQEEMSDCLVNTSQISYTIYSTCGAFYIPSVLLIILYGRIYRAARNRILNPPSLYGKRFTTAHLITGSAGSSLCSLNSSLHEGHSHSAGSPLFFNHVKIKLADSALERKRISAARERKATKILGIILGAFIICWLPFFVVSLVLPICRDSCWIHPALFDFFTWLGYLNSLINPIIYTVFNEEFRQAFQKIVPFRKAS
T1 sequence (P49144 whole entry): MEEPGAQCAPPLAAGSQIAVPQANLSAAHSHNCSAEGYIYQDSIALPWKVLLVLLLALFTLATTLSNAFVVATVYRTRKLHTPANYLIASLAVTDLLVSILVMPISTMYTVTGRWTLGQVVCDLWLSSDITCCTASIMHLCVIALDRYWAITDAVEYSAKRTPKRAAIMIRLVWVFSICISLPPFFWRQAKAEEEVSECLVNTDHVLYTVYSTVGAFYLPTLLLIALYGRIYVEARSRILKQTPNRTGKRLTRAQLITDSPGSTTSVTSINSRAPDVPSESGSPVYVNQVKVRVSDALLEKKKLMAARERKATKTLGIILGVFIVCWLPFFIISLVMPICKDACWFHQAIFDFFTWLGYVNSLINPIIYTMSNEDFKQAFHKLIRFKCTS

As for `CC(C)c1ccc(CC2=NCCN2)cc1.Cl` [Example 5a, 4,5-Dihydro-2-[(4-isopropylphenyl)methyl]-1H-imidazole Hydrochloride], the figures for the Ki on 5-HT1Dα (setting [1]) and on 5-HT1Dβ (setting [2]) were 340 nM and 2780 nM, respectively. The “5-HT1Dβ / 5-HT1Dα” value at 5-HT1Dα was 8.
Turning to `CC(C)(C)c1ccc(CC2=NCCN2)cc1` [Example 5b, 2-[(4-t-Butyphenyl)methyl]-4,5-dihydro-1H-imidazole hydrochloride], the Ki at 5-HT1Dα (setting [1]) is 105 nM; on 5-HT1Dβ (setting [2]), more than 10000 nM. Besides, at 5-HT1Dα, the “5-HT1Dβ / 5-HT1Dα” value is reported as more than 95.
As to `Cc1cc(C(C)(C)C)cc(C)c1CC1=NCCN1` [Example 5c, 2-[(4-t-Butyl-2,6-dimethylphenyl)methyl]-4,5-dihydro-1H-imidazole hydrochloride], the Ki on 5-HT1Dβ was found to be 14.9 nM.
On to `Cc1cc(Br)cc(C)c1CC1=NCCN1.Cl` [Example 5d, 2-[(4-Bromo-2,6-dimethylphenyl)methyl]-4,5-dihydro-1H-imidazole hydrochloride], for which the results for the Ki at 5-HT1Dα (setting [1]) and at 5-HT1Dβ (setting [2]) were 74 nM and 1570 nM, respectively. At 5-HT1Dα, the “5-HT1Dβ / 5-HT1Dα” value stood at 21.
`Cc1cc(C)c(CC2=NCCN2)c(C)c1.Cl` [Example 5e, 4,5-Dihydro-2-[(2,4,6-trimethylphenyl)methyl]-1H-imidazole hydrochloride]: the figures for the Ki at 5-HT1Dα and at 5-HT1Dβ (setting [2]) were 92 nM and 3480 nM, respectively. The “5-HT1Dβ / 5-HT1Dα” value on 5-HT1Dα was 20.
As to `Cc1cc(C(C)C)cc(C)c1CC1=NCCN1.Cl` [Example 5f, 4,5-Dihydro-2-[(2,6-dimethyl-4-isopropylphenyl)methyl]-1H-imidazole hydrochloride], the Ki on 5-HT1Dα is 1.6 nM; at 5-HT1Dβ (setting [2]) it was 37 nM. Also, on 5-HT1Dα, the “5-HT1Dβ / 5-HT1Dα” value is on record as 23.
With `Cl.c1ccc2cc(CC3=NCCN3)ccc2c1` [Example 5g, 4,5-Dihydro-2-(2-naphthalenylmethyl)-1H-imidazole hydrochloride], the values for the Ki at 5-HT1Dα and at 5-HT1Dβ were 135 nM and 1160 nM, respectively. Also, the “5-HT1Dβ / 5-HT1Dα” value on 5-HT1Dα is reported as 9.
For the molecule `Cc1cc(C(C)(C)C)cc(C)c1CC1=NCCN1Cc1ccccc1.Cl` [Example 5i, 2-[(4-t-Butyl-2,6-dimethylphenyl)methyl]-1-benzyl-4,5-dihydroimidazole hydrochloride], the Ki is 30 nM on 5-HT1Dα (setting [1]) and 1860 nM on 5-HT1Dβ (setting [2]). Moreover, on 5-HT1Dα, the “5-HT1Dβ / 5-HT1Dα” value worked out at 62.
Turning to `Cc1cc(C(C)(C)C)cc(C)c1CC1=NCCCN1.Cl` [Example 5j, 2-(4-t-Butyl-2,6-dimethylbenzyl)-1,4,5,6-tetrahydropyrimidine hydrochloride], the Ki on 5-HT1Dα (setting [1]) was 35 nM; on 5-HT1Dβ (setting [2]) it was more than 5000 nM. For the same molecule, the “5-HT1Dβ / 5-HT1Dα” value on 5-HT1Dα is on record as more than 143.
With `Cc1cc(C(C)(C)C)ccc1CC1=NCCN1.Cl` [Example 5k, 2-[(4-t-Butyl-2-methylphenyl)methyl]-4,5-dihydro-1H-imidazole hydrochloride], the values for the Ki on 5-HT1Dα (setting [1]) and at 5-HT1Dβ (setting [2]) were 6.8 nM and 712 nM, respectively. At 5-HT1Dα, the “5-HT1Dβ / 5-HT1Dα” value is 105.
With `Cc1cc(C(C)(C)C)cc(C)c1CC(=N)N` [Example 6, 4-t-Butyl-2,6-dimethylbenzeneethanimidamide], the Ki worked out at 13 nM at 5-HT1Dα (setting [1]) and 600 nM at 5-HT1Dβ (setting [2]). For the same molecule, at 5-HT1Dα, the “5-HT1Dβ / 5-HT1Dα” value was 46.
Consider `CC(C)(C)c1ccc(CC2=NCCN2)cc1` [drawing 22], for which the EC50 at 5-HT1D receptor (setting [3]) was 2900 nM.
In the case of `Cc1cc(C)c(CC2=NCCN2)c(C)c1` [drawing 23], the response on 5-HT1D receptor was half-maximal at 100 nM (EC50).
Turning to `Cc1cc(C(C)(C)C)cc(C)c1CC(=N)N` [drawing 24], the EC50 on 5-HT1D receptor (setting [3]) was 23 nM.
For the molecule `Cc1cc(C(C)(C)C)c(O)c(C)c1CC1=NCCN1` [oxymetazoline, reference compound], the Ki on 5-HT1Dβ (setting [2]) is 0.33 nM.
